Experimental findings from patent publication US20260158009A1 (GENZYME CORPORATION, priority 2023, published 2026) are described below.

Assay [1] concerns the target T1, hRIPK1 (aa 1-375) fusion protein (Homo sapiens, UniProt Q13546).
T1 construct: hRIPK1 (aa 1-375) fusion protein
T1 sequence (Q13546 1-375): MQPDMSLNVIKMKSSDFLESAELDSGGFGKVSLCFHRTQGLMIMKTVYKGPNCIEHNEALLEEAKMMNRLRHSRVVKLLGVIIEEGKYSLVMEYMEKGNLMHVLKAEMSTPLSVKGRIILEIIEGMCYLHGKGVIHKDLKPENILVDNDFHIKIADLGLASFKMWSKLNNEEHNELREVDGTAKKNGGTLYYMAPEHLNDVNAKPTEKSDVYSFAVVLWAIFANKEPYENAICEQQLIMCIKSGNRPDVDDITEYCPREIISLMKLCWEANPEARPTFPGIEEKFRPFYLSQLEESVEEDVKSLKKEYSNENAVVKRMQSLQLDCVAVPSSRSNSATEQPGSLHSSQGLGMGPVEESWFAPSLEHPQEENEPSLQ
Put plainly: ADP-Glo kinase assay: catalytic activity of RIPK1 (autophosphorylation, conversion of ATP to ADP). Type of assay: biochemical. The procedure, abridged: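 The readout was ADP-Glo luminescence after a 240 min rt autophosphorylation reaction with 50 μM ATP, following 30 min preincubation of 3.6 μg/ml hRIPK1 (aa 1-375) fusion with compound at 33300-1.69 nM final in 1% DMSO. Values came from Levenberg-Marquardt nonlinear fits.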

For a further assay, the system named is U937 cells. Put plainly: Cellular assay in U937 cells: activity of RIPK1 inhibitors on TNFα/zVAD.fmk-induced cell death (necroptosis), CellTiter 96 AQueous (MTS) readout. Format: cell-based. Conditions: Homo sapiens, U-937. The procedure, abridged:
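Necroptosis was measured by viable-cell MTS reduction (4 h, absorbance 490 nm) after overnight (18–24 h) 37° C culture. Cell suspensions of U937 cells carried TNFα (100 ng/ml) plus zVAD.fmk (50 μM) before compound was added. A 10-point curve (10 μM–0.26 nM or 1 μM–0.07 nM) was run in duplicate, normalised to the control lacking TNFα/zVAD.fmk.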

For orientation: IC50 means the concentration that inhibits the measured activity by half. On to `Cc1nc(C[C@H]2CC[C@H](C(=O)N3OCCC3c3cnc(C)c(F)c3)CC2)cs1` (stereo partly shown) [compound 360], for which the results for the IC50 (in assay [1]; in the assay on U937 cells) were 20 nM and 7 nM, respectively.

As to `Cc1cc(C[C@H]2CC[C@H](C(=O)N3OCC[C@H]3c3cnc(C)c(F)c3)CC2)cnn1` [compound 398, trans-[(3S)-3-(5-fluoro-6-methylpyridin-3-yl)-1,2-oxazolidin-2-yl]-[4-[(6-methylpyridazin-4-yl)methyl]cyclohexyl]methanone], the results for the concentration for half-maximal inhibition (IC50) (in assay [1]; in the assay with U937 cells) were 64 nM and 182 nM, respectively.

Regarding `Cc1nc2c(F)cc(C[C@H]3CC[C@H](C(=O)N4OCC[C@H]4c4cc(F)cc(F)c4)CC3)cn2n1` [compound 285, trans-[(3S)-3-(3,5-difluorophenyl)isoxazolidin-2-yl]-[4-[(8-fluoro-2-methyl-[1,2,4]triazolo[1,5-a]pyridin-6-yl)methyl]cyclohexyl]methanone], the IC50 in assay [1] was 11 nM; in the assay with U937 cells, 10 nM.

As to `Cn1ncc2ccc(C[C@H]3CC[C@H](C(=O)N4OCC[C@H]4c4cc(F)cc(F)c4)CC3)cc21` [compound 295, trans-[(3S)-3-(3,5-difluorophenyl)isoxazolidin-2-yl]-[4-[(1-methylindazol-6-yl)methyl]cyclohexyl]methanone], the IC50 amounted to 6 nM in assay [1] and 1 nM in the assay on U937 cells.

Turning to `CNC(=O)c1ccc(F)c(C[C@H]2CC[C@H](C(=O)N3OCC[C@H]3c3ccc(F)cc3)CC2)c1` [compound 173, trans-4-fluoro-3-[[4-[(3S)-3-(4-fluorophenyl)isoxazolidine-2-carbonyl]cyclohexyl]methyl]-N-methyl-benzamide], the IC50 in assay [1] worked out at 18 nM; with U937 cells, 17 nM.

With `N#Cc1cncc([C@@H]2CCON2C(=O)[C@H]2CC[C@H](Cn3cc4ccc(C#N)cc4n3)CC2)c1` [compound 127, trans-2-((4-((S)-3-(5-cyanopyridin-3-yl)isoxazolidine-2-carbonyl)cyclohexyl)methyl)-2H-indazole-6-carbonitrile], the figures for the 50% inhibitory concentration (IC50) (in assay [1]; in the assay with U937 cells) were 29 nM and 15 nM, respectively.

On to `Cn1nccc1C[C@H]1CC[C@H](C(=O)N2OCC[C@H]2c2ccc(F)cc2)CC1` [compound 306, trans-[(3S)-3-(4-fluorophenyl)isoxazolidin-2-yl]-[4-[(2-methylpyrazol-3-yl)methyl]cyclohexyl]methanone], for which the half-maximal inhibitory concentration (IC50) in assay [1] stood at 17 nM; in the assay with U937 cells, 25 nM.

As for `Cc1nc2ccc(C[C@H]3CC[C@H](C(=O)N4OCC[C@H]4c4cncc(C#N)c4)CC3)cn2n1` [compound 262, trans-5-[(3S)-2-[4-[(2-methyl-[1,2,4]triazolo[1,5-a]pyridin-6-yl)methyl]cyclohexanecarbonyl]isoxazolidin-3-yl]pyridine-3-carbonitrile], the concentration for half-maximal inhibition (IC50) in assay [1] was 34 nM; in the assay with U937 cells it was 67 nM.

Take `N#Cc1cc(F)cc([C@@H]2CCON2C(=O)[C@H]2CC[C@H](Cn3cnc4cc(F)c(C(N)=O)cc43)CC2)c1` [compound 70, trans-1-((4-((S)-3-(3-cyano-5-fluorophenyl)isoxazolidine-2-carbonyl)cyclohexyl)methyl)-5-fluoro-1H-benzo[d]imidazole-6-carboxamide]: the IC50 was 44 nM in assay [1] and 403 nM in the assay with U937 cells.

For the molecule `O=C1NCc2ccc(C[C@H]3CC[C@H](C(=O)N4OCC[C@H]4c4cnccn4)CC3)cc21` [compound 145, trans-6-[[4-[(3S)-3-pyrazin-2-ylisoxazolidine-2-carbonyl]cyclohexyl]methyl]isoindolin-1-one], the half-inhibitory concentration (IC50) in assay [1] came to 29 nM; in the assay on U937 cells it was 16 nM.

For the molecule `Cc1ncc(C#N)cc1C[C@H]1CC[C@H](C(=O)N2OCC[C@H]2c2cc(F)cc(F)c2)CC1` [compound 278, trans-5-[[4-[(3S)-3-(3,5-difluorophenyl)isoxazolidine-2-carbonyl]cyclohexyl]methyl]-6-methyl-pyridine-3-carbonitrile], the values for the IC50 (in assay [1]; in the assay on U937 cells) were 16 nM and 3 nM, respectively.

Consider `N#Cc1cc(F)cc([C@@H]2CCON2C(=O)[C@H]2CC[C@H](Cn3ncc4cc(C(N)=O)ccc43)CC2)c1` [compound 72, trans-1-((4-((S)-3-(3-cyano-5-fluorophenyl)isoxazolidine-2-carbonyl)cyclohexyl)methyl)-1H-indazole-5-carboxamide], for which the IC50 in assay [1] turned out to be 30 nM; in the assay with U937 cells it was 10 nM.

As for `Cc1ncc(C[C@H]2CC[C@H](C(=O)N3OCC[C@H]3c3cc(F)cc(C#N)c3)CC2)cc1C#N` [compound 268, trans-5-[[4-[(3S)-3-(3-cyano-5-fluoro-phenyl)isoxazolidine-2-carbonyl]cyclohexyl]methyl]-2-methyl-pyridine-3-carbonitrile], the IC50 came out at 12 nM in assay [1] and 5 nM in the assay with U937 cells.

Regarding `Cc1nc([C@@H]2CCON2C(=O)[C@H]2CC[C@H](Cc3ccc(C)c(C(N)=O)c3)CC2)cs1` [compound 159, trans-2-methyl-5-[[4-[(3S)-3-(2-methylthiazol-4-yl)isoxazolidine-2-carbonyl]cyclohexyl]methyl]benzamide], the figures for the IC50 (in assay [1]; with U937 cells) were 7 nM and 48 nM, respectively.

Regarding `N#Cc1cncc([C@@H]2CCON2C(=O)[C@H]2CC[C@H](Cn3cnc4ccc(F)cc43)CC2)c1` [compound 106, trans-5-((S)-2-(4-((6-fluoro-1H-benzo[d]imidazol-1-yl)methyl)cyclohexane-1-carbonyl)isoxazolidin-3-yl)nicotinonitrile], the results for the IC50 (in assay [1]; with U937 cells) were 46 nM and 54 nM, respectively.

For `Cc1ccc([C@@H]2CCON2C(=O)[C@H]2CC[C@H](Cn3ncc4cc(C#N)c(F)cc43)CC2)cn1` [compound 298, 6-fluoro-1-[[trans-4-[(3S)-3-(6-methyl-3-pyridyl)isoxazolidine-2-carbonyl]cyclohexyl]methyl]indazole-5-carbonitrile], the results for the IC50 (in assay [1]; in the assay on U937 cells) were 20 nM and 6 nM, respectively.

On to `Cc1cncc([C@@H]2CCON2C(=O)[C@H]2CC[C@H](Cc3ccc(F)c(C(N)=O)c3)CC2)n1` [compound 299, trans-2-fluoro-5-[[4-[(3S)-3-(6-methylpyrazin-2-yl)isoxazolidine-2-carbonyl]cyclohexyl]methyl]benzamide], for which the half-inhibitory concentration (IC50) was determined as 14 nM in assay [1] and 19 nM in the assay with U937 cells.

As for `Cc1nc([C@@H]2CCON2C(=O)[C@H]2CC[C@H](Cc3cc(C)c4ncnn4c3)CC2)cs1` [compound 362, trans-[(S)-3-(2-Methyl-thiazol-4-yl)-isoxazolidin-2-yl]-[4-(8-methyl-[1,2,4]triazolo[1,5-a]pyridin-6-ylmethyl)-cyclohexyl]-methanone], the results for the 50% inhibitory concentration (IC50) (in assay [1]; with U937 cells) were 59 nM and 52 nM, respectively.

Turning to `Cn1cc(C[C@H]2CC[C@H](C(=O)N3OCC[C@H]3c3cc(F)cc(C#N)c3)CC2)cn1` [compound 150, trans-3-fluoro-5-[(3S)-2-[4-[(1-methylpyrazol-4-yl)methyl]cyclohexanecarbonyl]isoxazolidin-3-yl]benzonitrile], the IC50 in assay [1] worked out at 21 nM; with U937 cells it was 25 nM.

For `N#Cc1cnc2cnn(C[C@H]3CC[C@H](C(=O)N4OCC[C@H]4c4cnccn4)CC3)c2c1` [compound 137, trans-1-[[4-[(3S)-3-pyrazin-2-ylisoxazolidine-2-carbonyl]cyclohexyl]methyl]pyrazolo[4,3-b]pyridine-6-carbonitrile], the IC50 in assay [1] was 30 nM; in the assay on U937 cells, 46 nM.

As to `N#Cc1cc(F)cc([C@@H]2CCON2C(=O)[C@H]2CC[C@H](Cc3ccc4ncnn4c3)CC2)c1` [compound 142, trans-3-fluoro-5-[(3S)-2-[4-([1,2,4]triazolo[1,5-a]pyridin-6-ylmethyl)cyclohexanecarbonyl]isoxazolidin-3-yl]benzonitrile], the IC50 in assay [1] worked out at 38 nM; with U937 cells it was 4 nM.

As for `O=C([C@H]1CC[C@H](Cc2cncnc2)CC1)N1OCC[C@H]1c1cnccn1` [compound 248, trans-[(3S)-3-pyrazin-2-ylisoxazolidin-2-yl]-[4-(pyrimidin-5-ylmethyl)cyclohexyl]methanone], the IC50 in assay [1] is 73 nM; in the assay with U937 cells, 666 nM.

Take `CNC(=O)c1ccc(F)c(C[C@H]2CC[C@H](C(=O)N3OCC[C@H]3c3cnccn3)CC2)c1` [compound 175, trans-4-fluoro-N-methyl-3-[[4-[(3S)-3-pyrazin-2-ylisoxazolidine-2-carbonyl]cyclohexyl]methyl]benzamide]: the half-inhibitory concentration (IC50) in assay [1] was 14 nM; with U937 cells, 7 nM.
